Reference: US11000491B2, “Amino-aryl-benzamide compounds and methods of use thereof” (HEPANOVA, INC., priority 2017, dated 2021)
pEC50: −log10 of the molar value. Read-outs that look alike come from different tables or passages of the source.

What was measured:
Format in all cases: cell-based
[1] = tested on: Huh7 cells; assay: LD content in Huh7 cells pre-treated with insulin, Oil-Red-O staining, absorbance OD 540 nm; conditions: procedure of Example 3, read-out: LD content inhibition (EC50)
Procedure, shortened: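 Huh7 cells, mock-treated or pre-treated with 1 mM insulin, were then exposed to compound at the indicated amounts. Lipid droplets stained with Oil Red O and quantified by absorbance at OD 540 nm.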

[2] = tested on: SREBP-1; assay: SREBP-1 expression in cultured primary human hepatocytes; conditions: procedure of Example 6, read-out: SREBP-1 mRNA inhibition (EC50)
Procedure, shortened: (§1)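 Primary human hepatocytes in culture exposed to a range of HPN-01 derivative concentrations; SREBP-1 and SREBP-2 mRNA expression then measured to assess inhibition.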

[3] = tested on: SREBP-2; assay: SREBP-2 expression in cultured primary human hepatocytes; conditions: procedure of Example 6, read-out: SREBP-2 mRNA inhibition (EC50)
Procedure, shortened: as §1

[4] = Homo sapiens, Huh-7, Huh7 cells

Compound	pEC50 [1, 4]	pEC50 ([2]; Homo sapiens, Hepatocyte)	pEC50 ([3]; Homo sapiens, Hepatocyte)	pEC50 ([1]; Huh7 cells)	pEC50 [2]	pEC50 [3]
Nc1c(C(=O)Nc2cccc(F)c2)cc(-c2ccc(Br)cc2)cc1-c1ccc(S(N)(=O)=O)cc1 [HPN-01614, 4′-amino-4-bromo-N-(3-fluorophenyl)-4″-sulfamoyl-[1,1′:3′,1″-terphenyl]-5′-carboxamide]	6.09	5.25	5.07	–	–	–
Nc1c(C(=O)Nc2ccc(F)c(F)c2)cc(-c2ccc(Cl)cc2)cc1-c1ccc(S(N)(=O)=O)cc1 [HPN-01615, 4′-amino-4-chloro-N-(3,4-difluorophenyl)-4″-sulfamoyl-[1,1′:3′,1″-terphenyl]-5′-carboxamide]	5.94	5.17	4.93	–	–	–
Nc1c(C(=O)Nc2ccc(F)c(F)c2)cc(-c2ccc(Br)cc2)cc1-c1ccc(S(N)(=O)=O)cc1 [HPN-01616, 4′-amino-4-bromo-N-(3,4-difluorophenyl)-4″-sulfamoyl-[1,1′:3′,1″-terphenyl]-5′-carboxamide]	5.97	5.45	5.17	–	–	–
Nc1c(C(=O)Nc2ccc(O)c(O)c2)cc(-c2ccc(Cl)cc2)cc1-c1ccc(S(N)(=O)=O)cc1 [HPN-01617, 4′-amino-4-chloro-N-(3,4-dihydroxyphenyl)-4″-sulfamoyl-[1,1′:3′,1″-terphenyl]-5′-carboxamide]	6.49	5.73	5.43	–	–	–
Nc1c(C(=O)Nc2ccc(O)c(O)c2)cc(-c2ccc(Br)cc2)cc1-c1ccc(S(N)(=O)=O)cc1 [HPN-01618, 4′-amino-4-bromo-N-(3,4-dihydroxyphenyl)-4″-sulfamoyl-[1,1′:3′,1″-terphenyl]-5′-carboxamide]	5.84	5.45	5.20	–	–	–
COc1cccc(NC(=O)c2cc(-c3ccc(Cl)cc3)cc(-c3ccc(S(N)(=O)=O)cc3)c2N)c1 [HPN-01619, 4′-amino-4-chloro-N-(3-methoxyphenyl)-4″-sulfamoyl-[1, 1′:3′,1″-terphenyl]-5′-carboxamide]	5.88	5.38	5.10	–	–	–
COc1cccc(NC(=O)c2cc(-c3ccc(Br)cc3)cc(-c3ccc(S(N)(=O)=O)cc3)c2N)c1 [HPN-01620, 4′-amino-4-bromo-N-(3-methoxyphenyl)-4″-sulfamoyl-[1,1′:3′,1″-terphenyl]-5′-carboxamide]	5.27	5.24	5.04	–	–	–
Nc1c(-c2ccc(S(N)(=O)=O)cc2)cc(-c2ccc(Br)cc2)cc1N1CCNCC1 [HPN-01622, 6′-amino-4″-bromo-5′-(piperazin-1-yl)-[1,1′:3′,1″-terphenyl]-4-sulfonamide]	4.64	4.43	4.29	–	–	–
NC(=O)N1CCN(c2cc(-c3ccc(Cl)cc3)cc(-c3ccc(S(N)(=O)=O)cc3)c2N)CC1 [HPN-01623, 4-(4′-amino-4-chloro-4″-sulfamoyl-[1, 1′:3′,1″-terphenyl]-5′-yl)piperazine-1-carboxamide]	4.82	4.42	4.30	–	–	–
Nc1c(C(=O)Nc2cccnc2)cc(-c2ccc(Cl)cc2)cc1-c1ccc(S(N)(=O)=O)cc1 [HPN-01625, 4′-amino-4-chloro-N-(pyridin-3-yl)-4″-sulfamoyl-[1,1′:3′,1″-terphenyl]-5′-carboxamide]	5.63	5.48	4.73	–	–	–
Nc1c(C(=O)Nc2ccc[nH]2)cc(-c2ccc(Cl)cc2)cc1-c1ccc(S(N)(=O)=O)cc1 [HPN-01626, 4′-amino-4-chloro-N-(1H-pyrrol-2-yl)-4″-sulfamoyl-[1,1′:3′,1″-terphenyl]-5′-carboxamide]	5.52	5.14	4.90	–	–	–
Nc1c(C(=O)Nc2ccsc2)cc(-c2ccc(Cl)cc2)cc1-c1ccc(S(N)(=O)=O)cc1 [HPN-01627, 4′-amino-4-chloro-4″-sulfamoyl-N-(thiophen-3-yl)-[1,1′:3′,1″-terphenyl]-5′-carboxamide]	5.92	5.71	5.37	–	–	–
Nc1c(C(=O)Nc2cc[nH]c2)cc(-c2ccc(Cl)cc2)cc1-c1ccc(S(N)(=O)=O)cc1 [HPN-01628, 4′-amino-4-chloro-N-(1H-pyrrol-3-yl)-4″-sulfamoyl-[1,1′:3′,1″-terphenyl]-5′-carboxamide]	5.94	5.62	5.26	–	–	–
Nc1c(C(=O)NCc2ccc[nH]2)cc(-c2ccc(Cl)cc2)cc1-c1ccc(S(N)(=O)=O)cc1 [HPN-01629, N-((1H-pyrrol-2-yl)methyl)-4′-amino-4-chloro-4″-sulfamoyl-[1,1′:3′,1″-terphenyl]-5′-carboxamide]	5.86	5.70	5.07	–	–	–
Nc1c(C(=O)NCc2cccnc2)cc(-c2ccc(Cl)cc2)cc1-c1ccc(S(N)(=O)=O)cc1 [HPN-01630, 4′-amino-4-chloro-N-(pyridin-3-ylmethyl)-4″-sulfamoyl-[1,1′:3′,1″-terphenyl]-5′-carboxamide]	5.62	5.45	5.41	–	–	–
(E)-2-amino-5-(3-((4-fluorophenethyl)amino)-3-oxoprop-1-en-1-yl)-4′-sulfamoyl-[1,1′-biphenyl]-3-carboxamide [HPN-01132]	–	–	–	7.15	6.44	5.81
(E)-2-amino-5-(3-((4-methoxyphenyl)amino)-3-oxoprop-1-en-1-yl)-4′-sulfamoyl-[1,1′-biphenyl]-3-carboxamide [HPN-01128]	–	–	–	6.05	5.62	5.46
(E)-2-amino-5-(3-(cyclohexylamino)-3-oxoprop-1-en-1-yl)-4′-sulfamoyl-[1,1′-biphenyl]-3-carboxamide [HPN-01133]	–	–	–	6.15	5.59	5.51
(E)-2-amino-5-(3-oxo-3-(phenylamino)prop-1-en-1-yl)-4′-sulfamoyl-[1,1′-biphenyl]-3-carboxamide [HPN-01125]	–	–	–	6.42	5.55	5.37
(E)-2-amino-5-styryl-4′-sulfamoyl-[1,1′-biphenyl]-3-carboxamide [HPN-01101]	–	–	–	6.24	5.53	5.16
butyl (E)-3-(6-amino-5-carbamoyl-4′-sulfamoyl-[1,1′-biphenyl]-3-yl)acrylate [HPN-01117]	–	–	–	5.94	5.16	5.08
decyl (E)-3-(6-amino-5-carbamoyl-4′-sulfamoyl-[1,1′-biphenyl]-3-yl)acrylate [HPN-01119]	–	–	–	5.97	5.57	5.38
furan-2-ylmethyl (E)-3-(6-amino-5-carbamoyl-4′-sulfamoyl-[1,1′-biphenyl]-3-yl)acrylate [HPN-01124]	–	–	–	6.17	5.73	5.49
methyl (E)-3-(6-amino-4′-(amino-(methylene)sulfinyl)-5-carbamoyl-[1,1′-biphenyl]-3-yl)acrylate [HPN-01114]	–	–	–	6.68	5.90	5.61
